Values of other authors in US11389412B2, “Curcuminoid chlorophyllin (CHL) compositions and methods of preparation and use” (InovoBiologic Inc., priority 2017, dated 2022).

Conditions: composition of curcuminoid mixture and essential oil arturmerone, U.S. Pat. No. 7,883,728

COc1cc(C=CC(=O)CC(=O)C=Cc2ccc(O)c(OC)c2)ccc1O [curcumin, 1,7bis (4-hydroxy-3-methoxy phenyl)-1,6 heptadiene-3,5-dione]
bioavailability of curcumin in human, maximum: about 93 ng/g
